Data: US11274332B2, “Methods of administering 3,4-diaminopyridine” (SERB SA, priority 2011, dated 2022)

Assay: Food-effect crossover study, adverse events after single 20 mg amifampridine phosphate in healthy subjects (Examples 10, 11)
Type: in vivo
Procedure: This was a randomized, open-label, 2-treatment, 2-period crossover study with 44 completed subjects to assess the safety, tolerability, and the effect of food on the relative bioavailability of a single dose of amifampridine phosphate.
Safety was evaluated for all subjects who take at least one dose of 3,4-DAP. Safety was evaluated by recording the incidence of adverse events (AEs), physical examination, vital signs, concomitant medications, clinical laboratory assessments, and 12-lead electrocardiogram (ECG).
Analysis for the following safety parameters was carried out on the Safety Population: AEs which included all AEs, AEs by severity, drug-related AEs, deaths, SAEs, AEs leading to study discontinuation, and most frequent AEs, standard clinical laboratory tests, vital signs, ECG measurements, routine physical examinations, and prior and concomitant medications. The cut-off for frequency of AEs reported was determined based on the data. No formal statistical testing was performed for the safety analyses; only descriptive statistics were provided. Appropriate descriptive statistics for the safety data were determined using SAS Version 9.2.
AEs were coded according to the Medical Dictionary for Regulatory Activities (MedDRA; Version 13.0). […] The occurrence of AEs was assessed continuously from the time the subject signed the VID and consent. The reporting period for non-serious AEs was from the first dose to the final study visit. The investigator determined the severity of each event and the relationship of an AE to the IP and recorded it on the source documents and AE CRF. The nature, time of onset, duration, severity, and relationship to study drug was documented, including documentation of investigator assessment and review. All events were assessed to determine if the AE was serious.
The Investigator determined the severity of each event and the event was recorded on the source documents and AE CRF. A coding of “mild” meant there was no limitation of usual activities, “moderate” meant there was some limitation of usual activities, “severe” meant there was an inability to carry out usual activities.
The reporting period for AEs that met the criteria of an SAE began from the time of signing the VID and consent form through follow-up or early termination. […] Clinical Laboratory Assessments

SMILES: Nc1ccncc1N.O=P(O)(O)O [amifampridine phosphate, 3,4-diaminopyridine phosphate]
- General Disorders and Administration Site Conditions Total, drug-related AE: events (Female N=16): 2
- General Disorders and Administration Site Conditions Total, drug-related AE: subjects (Female N=16): 2
- Headache, drug-related AE: % of subjects (Female N=16): 19%
- Headache, drug-related AE: events (Female N=16): 3
- Headache, drug-related AE: subjects (Female N=16): 3
- Hypoaesthesia Facial, drug-related AE: % of subjects (Female N=16): (0%) [0]
- Hypoaesthesia Facial, drug-related AE: events (Female N=16): (0%) [0]
- Hypoaesthesia Facial, drug-related AE: subjects (Female N=16): 0
- Hypoaesthesia Oral, drug-related AE: % of subjects (Female N=16): 6%
- Hypoaesthesia Oral, drug-related AE: events (Female N=16): 1
- Hypoaesthesia Oral, drug-related AE: subjects (Female N=16): 1
- Hypoaesthesia, drug-related AE: % of subjects (Female N=16): 6%
- Hypoaesthesia, drug-related AE: events (Female N=16): 1
- Hypoaesthesia, drug-related AE: subjects (Female N=16): 1
- Nausea, drug-related AE: % of subjects (Female N=16): 13%
- Nausea, drug-related AE: events (Female N=16): 2
- Nausea, drug-related AE: subjects (Female N=16): 2
- Nervous System Disorders Total, drug-related AE: % of subjects (Female N=16): 63%
- Nervous System Disorders Total, drug-related AE: events (Female N=16): 31
- Nervous System Disorders Total, drug-related AE: subjects (Female N=16): 10
- Paraesthesia Oral, drug-related AE: % of subjects (Female N=16): 44%
- Paraesthesia Oral, drug-related AE: events (Female N=16): 12
- Paraesthesia Oral, drug-related AE: subjects (Female N=16): 7
- Paraesthesia, drug-related AE: % of subjects (Female N=16): 38%
- Paraesthesia, drug-related AE: events (Female N=16): 9
- Paraesthesia, drug-related AE: subjects (Female N=16): 6
- Possibly or probably related AEs, Mild: % of subjects (Female N=16): 75%
- Possibly or probably related AEs, Mild: events (Female N=16): 41
- Possibly or probably related AEs, Mild: subjects (Female N=16): 12
- Possibly or probably related AEs, Moderate: % of subjects (Female N=16): 6%
- Possibly or probably related AEs, Moderate: events (Female N=16): 1
- Possibly or probably related AEs, Moderate: subjects (Female N=16): 1
- Possibly or probably related AEs, Severe: % of subjects (Female N=16): (0%) [0]
- Possibly or probably related AEs, Severe: events (Female N=16): (0%) [0]
- Possibly or probably related AEs, Severe: subjects (Female N=16): 0
- Possibly or probably related AEs, Total: % of subjects (Female N=16): 75%
- Possibly or probably related AEs, Total: events (Female N=16): 42
- Possibly or probably related AEs, Total: subjects (Female N=16): 12
- Serious adverse events: % of subjects (Female N=16): (0%) [0]
- Serious adverse events: events (Female N=16): (0%) [0]
- Serious adverse events: subjects (Female N=16): 0
- Skin and Subcutaneous Tissue Disorders Total, drug-related AE: % of subjects (Female N=16): (0%) [0]
- Skin and Subcutaneous Tissue Disorders Total, drug-related AE: events (Female N=16): (0%) [0]
- Skin and Subcutaneous Tissue Disorders Total, drug-related AE: subjects (Female N=16): 0
- Vascular Disorders Total, drug-related AE: % of subjects (Female N=16): 6%
- Vascular Disorders Total, drug-related AE: events (Female N=16): 1
- Vascular Disorders Total, drug-related AE: subjects (Female N=16): 1
- Abdominal Pain Upper, drug-related AE: % of subjects (Male N=31): 3%
- Abdominal Pain Upper, drug-related AE: events (Male N=31): 1
- Abdominal Pain Upper, drug-related AE: subjects (Male N=31): 1
- Abdominal Pain, drug-related AE: % of subjects (Male N=31): 3%
- Abdominal Pain, drug-related AE: events (Male N=31): 1
- Abdominal Pain, drug-related AE: subjects (Male N=31): 1
- Abdominal Tenderness, drug-related AE: % of subjects (Male N=31): (0%) [0]
- Abdominal Tenderness, drug-related AE: events (Male N=31): (0%) [0]
- Abdominal Tenderness, drug-related AE: subjects (Male N=31): 0
- Acne, drug-related AE: % of subjects (Male N=31): 3%
- Acne, drug-related AE: events (Male N=31): 1
- Acne, drug-related AE: subjects (Male N=31): 1
- All treatment emergent AEs, Mild: % of subjects (Male N=31): 58%
- All treatment emergent AEs, Mild: events (Male N=31): 57
- All treatment emergent AEs, Mild: subjects (Male N=31): 18
- All treatment emergent AEs, Moderate: % of subjects (Male N=31): (0%) [0]
- All treatment emergent AEs, Moderate: events (Male N=31): (0%) [0]
- All treatment emergent AEs, Moderate: subjects (Male N=31): 0
- All treatment emergent AEs, Severe: % of subjects (Male N=31): 3%
- All treatment emergent AEs, Severe: events (Male N=31): 1
- All treatment emergent AEs, Severe: subjects (Male N=31): 1
- All treatment emergent AEs, Total: events (Male N=31): 58
- All treatment emergent AEs, Total: subjects (Male N=31): 19
- Constipation, drug-related AE: % of subjects (Male N=31): (0%) [0]
- Constipation, drug-related AE: events (Male N=31): (0%) [0]
- Constipation, drug-related AE: subjects (Male N=31): 0
- Diarrhoea, drug-related AE: % of subjects (Male N=31): (0%) [0]
- Diarrhoea, drug-related AE: events (Male N=31): (0%) [0]
- Diarrhoea, drug-related AE: subjects (Male N=31): 0
- Discontinued due to adverse events: % of subjects (Male N=31): 3%
- Discontinued due to adverse events: events (Male N=31): 1
- Discontinued due to adverse events: subjects (Male N=31): 1
- Dizziness, drug-related AE: % of subjects (Male N=31): 3%
- Dizziness, drug-related AE: events (Male N=31): 2
- Dizziness, drug-related AE: subjects (Male N=31): 1
- Dysgeusia, drug-related AE: % of subjects (Male N=31): 6%
- Dysgeusia, drug-related AE: events (Male N=31): 3
- Dysgeusia, drug-related AE: subjects (Male N=31): 2
- Fatigue, drug-related AE: % of subjects (Male N=31): 6%
- Fatigue, drug-related AE: events (Male N=31): 2
- Fatigue, drug-related AE: subjects (Male N=31): 2
- Feeling Hot, drug-related AE: % of subjects (Male N=31): 3%
- Feeling Hot, drug-related AE: events (Male N=31): 1
- Feeling Hot, drug-related AE: subjects (Male N=31): 1
- Flushing, drug-related AE: % of subjects (Male N=31): (0%) [0]
- Flushing, drug-related AE: events (Male N=31): (0%) [0]
- Flushing, drug-related AE: subjects (Male N=31): 0
- Gastrointestinal Disorders Total, drug-related AE: % of subjects (Male N=31): 13%
- Gastrointestinal Disorders Total, drug-related AE: events (Male N=31): 4
- Gastrointestinal Disorders Total, drug-related AE: subjects (Male N=31): 4
- General Disorders and Administration Site Conditions Total, drug-related AE: % of subjects (Male N=31): 10%
- General Disorders and Administration Site Conditions Total, drug-related AE: events (Male N=31): 3
- General Disorders and Administration Site Conditions Total, drug-related AE: subjects (Male N=31): 3
- Headache, drug-related AE: % of subjects (Male N=31): 6%
- Headache, drug-related AE: events (Male N=31): 2
- Headache, drug-related AE: subjects (Male N=31): 2
- Hypoaesthesia Facial, drug-related AE: % of subjects (Male N=31): 3%
- Hypoaesthesia Facial, drug-related AE: events (Male N=31): 1
- Hypoaesthesia Facial, drug-related AE: subjects (Male N=31): 1
- Hypoaesthesia Oral, drug-related AE: % of subjects (Male N=31): 13%
- Hypoaesthesia Oral, drug-related AE: events (Male N=31): 5
- Hypoaesthesia Oral, drug-related AE: subjects (Male N=31): 4
- Hypoaesthesia, drug-related AE: % of subjects (Male N=31): 3%
- Hypoaesthesia, drug-related AE: events (Male N=31): 1
- Hypoaesthesia, drug-related AE: subjects (Male N=31): 1
- Nausea, drug-related AE: % of subjects (Male N=31): 6%
- Nausea, drug-related AE: events (Male N=31): 2
- Nausea, drug-related AE: subjects (Male N=31): 2
- Nervous System Disorders Total, drug-related AE: % of subjects (Male N=31): 55%
- Nervous System Disorders Total, drug-related AE: events (Male N=31): 43
- Nervous System Disorders Total, drug-related AE: subjects (Male N=31): 17
- Paraesthesia Oral, drug-related AE: % of subjects (Male N=31): 42%
- Paraesthesia Oral, drug-related AE: events (Male N=31): 18
- Paraesthesia Oral, drug-related AE: subjects (Male N=31): 13
- Paraesthesia, drug-related AE: % of subjects (Male N=31): 19%
- Paraesthesia, drug-related AE: events (Male N=31): 11
